According to PubChem BioAssay (NCI):
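Cultured in 96-well plates, cells were exposed to test compound for 48 hours across five concentrations. GI50 = concentration required for 50% inhibition of growth. TGI: concentration producing complete growth inhibition.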

How the values were obtained:
Test in all cases: NCI tumour cell line growth inhibition, 48 h
[1] = system: HS 578T breast
[2] = system: HL-60(TB) leukemia
[3] = system: NCI/ADR-RES ovarian
[4] = system: OVCAR-8 ovarian
[5] = system: LOX IMVI melanoma
[6] = system: T-47D breast
[7] = system: SNB-19 CNS
[8] = system: M14 melanoma
[9] = system: SK-MEL-2 melanoma
[10] = system: MDA-MB-435
[11] = system: A498 renal
[12] = system: HCT-15 colon
[13] = system: SNB-75 CNS
[14] = system: SK-MEL-28 melanoma
[15] = system: SF-295 CNS
[16] = system: MDA-MB-231 breast
[17] = system: UACC-62 melanoma
[18] = system: IGROV1 ovarian
[19] = system: MCF7 breast
[20] = system: OVCAR-4 ovarian
[21] = system: SK-OV-3 ovarian
[22] = system: K-562 leukemia
[23] = system: BT-549 breast
[24] = system: RXF 393 renal
[25] = system: UACC-257 melanoma
[26] = system: DU-145 prostate
[27] = system: ACHN renal
[28] = system: HOP-62 NSCLC
[29] = system: NCI-H460 lung
[30] = system: EKVX NSCLC
[31] = system: OVCAR-3 ovarian
[32] = system: HOP-92 NSCLC
[33] = system: SR leukemia
[34] = system: TK-10 renal
[35] = system: NCI-H23 lung
[36] = system: SK-MEL-5 melanoma
[37] = system: SF-268 CNS
[38] = system: OVCAR-5 ovarian
[39] = system: U251 CNS
[40] = system: SF-539 CNS
[41] = system: COLO 205 colon
[42] = system: A549 NSCLC
[43] = system: SN12C renal
[44] = system: UO-31 renal
[45] = system: CAKI-1 renal
[46] = system: HCT-116 colon
[47] = system: NCI-H522 lung
[48] = system: PC-3 prostate
[49] = system: RPMI-8226 leukemia
[50] = system: HCC-2998 colon
[51] = system: MOLT-4 leukemia
[52] = system: NCI-H226 lung
[53] = system: MALME-3M melanoma
[54] = system: KM12 colon
[55] = system: SW-620 colon
[56] = system: CCRF-CEM leukemia
[57] = system: 786-0 renal
[58] = system: HT29 colon

CN1CCC(n2cc(Nc3ncc4c(=O)n(-c5c(Cl)cccc5Cl)cc(Br)c4n3)cn2)CC1
GI50 [1]: 538 nM
TGI [1]: 16100 nM
GI50 [2]: 160 nM
TGI [2]: 853 nM
GI50 [3]: 288 nM
TGI [3]: 15300 nM
GI50 [4]: 268 nM
TGI [4]: 5020 nM
GI50 [5]: 480 nM
TGI [5]: 2920 nM
GI50 [6]: 887 nM
TGI [6]: 15500 nM
GI50 [7]: 693 nM
TGI [7]: 13600 nM
GI50 [8]: 65 nM
TGI [8]: 13400 nM
GI50 [9]: 192 nM
TGI [9]: 1730 nM
GI50 [10]: 148 nM
TGI [10]: 10300 nM
GI50 [11]: 62.8 nM
TGI [11]: 3190 nM
GI50 [12]: 368 nM
TGI [12]: 11300 nM
GI50 [13]: 611 nM
TGI [13]: 11300 nM
GI50 [14]: 4100 nM
TGI [14]: 18900 nM
GI50 [15]: 939 nM
TGI [15]: 15500 nM
GI50 [16]: 821 nM
TGI [16]: 13400 nM
GI50 [17]: 901 nM
TGI [17]: 22000 nM
GI50 [18]: 110 nM
TGI [18]: 7320 nM
GI50 [19]: 181 nM
TGI [19]: 7250 nM
GI50 [20]: 627 nM
TGI [20]: 11300 nM
GI50 [21]: 275 nM
TGI [21]: 13900 nM
GI50 [22]: 178 nM
TGI [22]: 12500 nM
GI50 [23]: 399 nM
TGI [23]: 4640 nM
GI50 [24]: 80.8 nM
TGI [24]: 585 nM
GI50 [25]: 1270 nM
TGI [25]: 9280 nM
GI50 [26]: 1300 nM
TGI [26]: 14800 nM
GI50 [27]: 40.2 nM
TGI [27]: 11900 nM
GI50 [28]: 846 nM
TGI [28]: 13300 nM
GI50 [29]: 1350 nM
TGI [29]: 8910 nM
GI50 [30]: 2770 nM
TGI [30]: 18000 nM
GI50 [31]: 223 nM
TGI [31]: 3470 nM
GI50 [32]: 102 nM
TGI [32]: 3730 nM
GI50 [33]: 42.5 nM
TGI [33]: 1610 nM
GI50 [34]: 178 nM
TGI [34]: 17400 nM
GI50 [35]: 65.1 nM
TGI [35]: 594 nM
GI50 [36]: 419 nM
TGI [36]: 17500 nM
GI50 [37]: 2160 nM
TGI [37]: 16500 nM
GI50 [38]: 1360 nM
TGI [38]: 12300 nM
GI50 [39]: 787 nM
TGI [39]: 11200 nM
GI50 [40]: 33.7 nM
TGI [40]: 166 nM
GI50 [41]: 1140 nM
TGI [41]: 8530 nM
GI50 [42]: 2320 nM
TGI [42]: 11500 nM
GI50 [43]: 235 nM
TGI [43]: 11400 nM
GI50 [44]: 70.8 nM
TGI [44]: 11500 nM
GI50 [45]: 98.4 nM
TGI [45]: 11500 nM
GI50 [46]: 585 nM
TGI [46]: 10400 nM
GI50 [47]: 424 nM
TGI [47]: 2650 nM
GI50 [48]: 1720 nM
TGI [48]: 16400 nM
GI50 [49]: 1150 nM
TGI [49]: 10300 nM
GI50 [50]: 740 nM
TGI [50]: 12500 nM
GI50 [51]: 64.6 nM
TGI [51]: 4260 nM
GI50 [52]: 1290 nM
TGI [52]: 11400 nM
GI50 [53]: 796 nM
TGI [53]: 18100 nM
GI50 [54]: 551 nM
TGI [54]: 16300 nM
GI50 [55]: 1200 nM
TGI [55]: 11800 nM
GI50 [56]: 75 nM
TGI [56]: 6360 nM
GI50 [57]: 241 nM
TGI [57]: 8320 nM
GI50 [58]: 142 nM
TGI [58]: 2620 nM

C=C1C(=O)O[C@@H]2/C=C(/C)C3=CC(=O)[C@@](C)(C[C@H](OC(=O)/C(C)=C\C)[C@@H]12)O3
GI50 [1]: 8010 nM
TGI [1]: > 32500 nM
GI50 [2]: 911 nM
TGI [2]: 2400 nM
GI50 [3]: 1060 nM
TGI [3]: > 32500 nM
GI50 [4]: 1000 nM
TGI [4]: 5890 nM
GI50 [5]: 997 nM
TGI [5]: 4120 nM
TGI [7]: > 32500 nM
GI50 [8]: 1300 nM
TGI [8]: 7040 nM
GI50 [9]: 1300 nM
TGI [9]: 7150 nM
GI50 [10]: 1500 nM
TGI [10]: 10200 nM
TGI [11]: 13300 nM
GI50 [12]: 661 nM
TGI [12]: 1770 nM
GI50 [13]: 2370 nM
TGI [13]: 27100 nM
GI50 [14]: 1090 nM
TGI [14]: 4600 nM
GI50 [15]: 5520 nM
TGI [15]: 13400 nM
GI50 [16]: 1700 nM
TGI [16]: 6990 nM
GI50 [17]: 748 nM
TGI [17]: 2400 nM
GI50 [18]: 3940 nM
TGI [18]: 9170 nM
GI50 [19]: 1120 nM
TGI [19]: 5550 nM
GI50 [20]: 1800 nM
TGI [20]: 6230 nM
GI50 [21]: 10500 nM
TGI [21]: > 32500 nM
GI50 [22]: 955 nM
TGI [22]: 4790 nM
TGI [23]: 5340 nM
GI50 [24]: 648 nM
TGI [24]: 1580 nM
GI50 [25]: 685 nM
TGI [25]: 4440 nM
GI50 [26]: 1500 nM
TGI [26]: 5580 nM
GI50 [27]: 658 nM
TGI [27]: 1430 nM
GI50 [28]: 6770 nM
TGI [28]: 19200 nM
GI50 [29]: 7040 nM
TGI [29]: > 32500 nM
TGI [30]: 8360 nM
TGI [31]: 2840 nM
GI50 [32]: 1170 nM
TGI [32]: 5150 nM
GI50 [33]: 594 nM
TGI [33]: 3740 nM
TGI [34]: 1990 nM
GI50 [35]: 1520 nM
TGI [35]: 6540 nM
GI50 [36]: 2410 nM
TGI [36]: 9160 nM
GI50 [37]: 5000 nM
TGI [37]: 15400 nM
GI50 [38]: 1670 nM
TGI [38]: 7810 nM
GI50 [39]: 3370 nM
TGI [39]: 8690 nM
GI50 [40]: 1440 nM
TGI [40]: 6360 nM
GI50 [41]: 676 nM
TGI [41]: 1570 nM
GI50 [42]: 6000 nM
TGI [42]: 19800 nM
TGI [43]: 12500 nM
GI50 [44]: 896 nM
TGI [44]: 4000 nM
GI50 [45]: 1100 nM
TGI [45]: 3800 nM
GI50 [46]: 631 nM
TGI [46]: 1490 nM
GI50 [47]: 545 nM
TGI [47]: 1210 nM
GI50 [48]: 4100 nM
TGI [48]: 12100 nM
GI50 [49]: 867 nM
TGI [49]: 2370 nM
GI50 [50]: 4640 nM
TGI [50]: 9070 nM
GI50 [51]: 857 nM
TGI [51]: 2880 nM
GI50 [52]: 1160 nM
TGI [52]: 4330 nM
TGI [53]: 5330 nM
GI50 [55]: 946 nM
TGI [55]: 2610 nM
GI50 [56]: 778 nM
TGI [56]: 2920 nM
GI50 [57]: 1130 nM
TGI [57]: 4130 nM
GI50 [58]: 1010 nM
TGI [58]: 3710 nM
